How the values were obtained:
HER2/neu [1] = molecular target: T1, HER2/neu (Rattus norvegicus, UniProt P06494); assay: HER2/neu phosphorylation in excised MCNeuA tumors (western blot); format: in vivo, mouse; conditions: 37.5 mg/kg i.p. three times a week, 16 hours after final dose, vs vehicle
T1 construct: expressed in transfected cells; host or cells: MCNeuA mouse mammary carcinoma cells (MMTV/neu transgene), in culture or grown as tumours in neuTg mice
Protocol: Tumors were homogenized in 50 mM HEPES, pH 7.6, 150 mM NaCl, 1 mM PMSF, 2 μM leupeptin, 2 μM Pepstatin A, and 2 mM Na3VO4, and solubilized by the addition of 1% Triton x-100. Soluble lysates were prepared as described for cell culture studies. Tyrosine phosphorylation of IGF-1R was determined by ELISA as described for MCF-7 cells. Phosphorylation of HER2/neu was determined by western blot employing the phospho-specific antibody as in the cell culture studies. The degree of phosphorylation for each receptor was normalized to total receptor protein content in the tumor samples as determined by western blotting with antibodies against the human IGF-1R and the rodent HER2/neu.

Akt/BAD pathway = assay: IGF-1 stimulated Akt and BAD phosphorylation in MCF-7 cells (western blot); format: cell-based, human; conditions: 1 nM IGF-1
Protocol: Inhibition of IGF-1-stimulated activation of serine kinase Akt was determined in the lysates prepared for the IGF-1R phosphotyrosine ELISA described above. 12 μg of sample was subjected to SDS-PAGE, transfer-ed to a nitrocellulose membrane, and […] quantified by blotting overnight at 4 C with a phospho-specific antibody to Akt (ser473) diluted 1:1000 in Superblock. Next, blots were washed with 3 times with TBST, then incubated with HRP conjugated sheep anti-rabbit IgG diluted 1:10,000 in Superblock for 90 minutes at room temperature. Phosphorylation of the apoptotic protein BAD was determined in the same manner by blotting with a phospho-specific antibody to BAD (ser136) (1:1,000).

MCF-7/neo cells = assay: Growth of MCF-7/neo cells with RTK inhibitors, 6 days (CyQuant); format: cell-based; conditions: Homo sapiens, MCF7, 144 h, read-out: one half maximal effect on growth
Protocol: MCF-7/neo or MCF-7/HER2-18 cells were plated in 96 well plates (4×10^3 cells/well) in 100 μl/well of DMEM-10 medium. […] Media with inhibitors was refreshed on day 3 and the cultures were harvested on day 6. The plates were inverted onto paper towels with gentle blotting to remove growth medium without disrupting adherent cells. Each plate was kept at −80° C. until assayed for cell growth. After thawing the plate at room temperature, 200 μl of CyQuant GR solution was added to each well and the plates were incubated in the dark for five minutes. Fluorescence was measured with a SpectraMax Gemini XS fluorescence microplate reader (Molecular Devices) with 480-nm excitation and 520-nm emission.

HER2/neu [2] = molecular target: T1, HER2/neu; assay: HER2/neu autophosphorylation in MCNeuA cells (western blot); format: cell-based, mouse; conditions: read-out: IC50, ligand-independent tyrosine phosphorylation of HER2/neu
Protocol: HER2/neu receptor autophosphorylation was determined in serum-starved MCNeuA or SKBR3 cells, which were collected in the basal state, due to the ligand-independent nature of HER2/neu activation. Following a one-hour incubation in serum-free media, soluble extracts of cells were prepared as above. HER2/neu autophosphorylation was determined by a western blot that employed a phosphospecific antibody, pNeu(Tyr1248) as described above.

[3] = system: Kelly human neuroblastoma cells
Protocol: Briefly, 7×10^6 Kelly human neuroblastoma cells were resuspended in a 1:1 mixture of PBS and Matrigel (BD Clontech Inc.) and 100 μl of the mixture was injected subcutaneously into the flanks of 6-12 week-old BALB/c nude mice. […] Tumors were then harvested, weighed and measured. The formula width^2×length/2 was used to calculate tumor-volumes.

IGF-IR = molecular target: T2, IGF-IR (Homo sapiens, UniProt P08069); assay: IGF-IR phosphorylation ELISA in neuroblastoma cells; format: cell-based; conditions: SHEP and SH-SY5Y cells, 60 μM NDGA 1 h, 1 nM IGF-I 10 min
T2 construct: endogenous in cells; host or cells: SH-SY5Y and SHEP
T2 sequence (P08069 31-1367): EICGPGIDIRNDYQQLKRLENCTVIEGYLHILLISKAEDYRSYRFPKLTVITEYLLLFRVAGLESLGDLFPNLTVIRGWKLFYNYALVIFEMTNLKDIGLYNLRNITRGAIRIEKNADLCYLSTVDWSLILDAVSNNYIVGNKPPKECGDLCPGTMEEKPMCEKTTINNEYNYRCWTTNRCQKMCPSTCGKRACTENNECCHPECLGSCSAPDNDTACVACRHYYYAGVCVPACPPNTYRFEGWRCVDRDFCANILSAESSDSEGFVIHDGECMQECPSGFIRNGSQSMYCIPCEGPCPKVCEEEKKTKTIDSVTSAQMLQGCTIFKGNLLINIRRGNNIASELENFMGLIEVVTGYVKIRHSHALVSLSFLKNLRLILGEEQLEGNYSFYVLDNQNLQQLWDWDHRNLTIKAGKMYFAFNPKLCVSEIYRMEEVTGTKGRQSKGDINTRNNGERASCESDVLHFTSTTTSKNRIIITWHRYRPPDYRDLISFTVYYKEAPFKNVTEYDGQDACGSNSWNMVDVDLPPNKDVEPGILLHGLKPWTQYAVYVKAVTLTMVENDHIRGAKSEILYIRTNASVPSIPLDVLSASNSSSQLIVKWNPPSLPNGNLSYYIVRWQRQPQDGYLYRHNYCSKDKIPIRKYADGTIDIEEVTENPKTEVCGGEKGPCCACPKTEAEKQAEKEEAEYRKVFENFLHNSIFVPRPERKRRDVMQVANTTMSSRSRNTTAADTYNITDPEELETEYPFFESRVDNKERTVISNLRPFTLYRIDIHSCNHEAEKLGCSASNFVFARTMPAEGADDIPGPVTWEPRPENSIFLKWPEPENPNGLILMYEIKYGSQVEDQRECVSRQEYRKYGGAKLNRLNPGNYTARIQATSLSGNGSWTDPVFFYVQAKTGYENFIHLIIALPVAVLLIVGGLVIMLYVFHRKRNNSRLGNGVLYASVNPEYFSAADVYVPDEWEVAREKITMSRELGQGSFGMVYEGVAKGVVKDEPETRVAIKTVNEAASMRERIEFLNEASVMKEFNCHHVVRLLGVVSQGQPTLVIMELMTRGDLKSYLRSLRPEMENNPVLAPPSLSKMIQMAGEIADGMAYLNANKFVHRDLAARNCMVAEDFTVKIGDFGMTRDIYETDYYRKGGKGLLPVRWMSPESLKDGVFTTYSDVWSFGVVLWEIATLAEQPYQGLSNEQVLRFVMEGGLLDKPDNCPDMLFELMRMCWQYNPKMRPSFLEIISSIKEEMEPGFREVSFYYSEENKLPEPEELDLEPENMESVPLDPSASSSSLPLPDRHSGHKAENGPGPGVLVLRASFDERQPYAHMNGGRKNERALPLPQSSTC
Protocol: IGF-1R phlosphorylation ELISA. SH-SY5Y and SHEP cells were grown to 80% confluence in DMEM/10% calf serum, then serum-starved for 4 h. […] Some cultures were then treated with 1 nM IGF-I for 10 min. The medium was removed, cultures rinsed 3× in cold PBS, and lysis buffer (120 mM HEPES, 300 mM NaCl, 2 mM sodium orthovanadate, and 1 mM phenylmethylsufonylfluoride (PMSF)) was added. Cultures were rocked in lysis buffer at 4° C. for 1 h. 96-well plates were coated with αIR-3 antibody in 50 mM NaHCO3, pH 9.0, for 2 h at RT. Plates were rinsed 3× in tris-buffered saline +0.1% Tween (TBST), then blocked with SuperBlock (Pierce, Rockford, Ill.) for 30 min at RT. Each well of the ELISA plate received 30 μg of lysate protein from the cell cultures, followed by 24 h incubation at 4° C. Plates were rinsed 5× with TBST, and HRP-conjugated anti-phosphotyrosine antibody was added (1:2000, diluted in 120 mM HEPES, 300 mM NaCl, 2 mM sodium orthovanadate. and 1 mM PMSF. 1% bovine serum albumin, 1 mg/ml bacitracin, and 0.5% Tween-20) for 2 h at RT. Plates were again rinsed 5× in TBST, and TMB (Pierce) was added until blue color was sufficiently developed. […] Each lysate was run in triplicate, and the experiment was repeated 3 times.

T1 sequence (P06494 23-1257): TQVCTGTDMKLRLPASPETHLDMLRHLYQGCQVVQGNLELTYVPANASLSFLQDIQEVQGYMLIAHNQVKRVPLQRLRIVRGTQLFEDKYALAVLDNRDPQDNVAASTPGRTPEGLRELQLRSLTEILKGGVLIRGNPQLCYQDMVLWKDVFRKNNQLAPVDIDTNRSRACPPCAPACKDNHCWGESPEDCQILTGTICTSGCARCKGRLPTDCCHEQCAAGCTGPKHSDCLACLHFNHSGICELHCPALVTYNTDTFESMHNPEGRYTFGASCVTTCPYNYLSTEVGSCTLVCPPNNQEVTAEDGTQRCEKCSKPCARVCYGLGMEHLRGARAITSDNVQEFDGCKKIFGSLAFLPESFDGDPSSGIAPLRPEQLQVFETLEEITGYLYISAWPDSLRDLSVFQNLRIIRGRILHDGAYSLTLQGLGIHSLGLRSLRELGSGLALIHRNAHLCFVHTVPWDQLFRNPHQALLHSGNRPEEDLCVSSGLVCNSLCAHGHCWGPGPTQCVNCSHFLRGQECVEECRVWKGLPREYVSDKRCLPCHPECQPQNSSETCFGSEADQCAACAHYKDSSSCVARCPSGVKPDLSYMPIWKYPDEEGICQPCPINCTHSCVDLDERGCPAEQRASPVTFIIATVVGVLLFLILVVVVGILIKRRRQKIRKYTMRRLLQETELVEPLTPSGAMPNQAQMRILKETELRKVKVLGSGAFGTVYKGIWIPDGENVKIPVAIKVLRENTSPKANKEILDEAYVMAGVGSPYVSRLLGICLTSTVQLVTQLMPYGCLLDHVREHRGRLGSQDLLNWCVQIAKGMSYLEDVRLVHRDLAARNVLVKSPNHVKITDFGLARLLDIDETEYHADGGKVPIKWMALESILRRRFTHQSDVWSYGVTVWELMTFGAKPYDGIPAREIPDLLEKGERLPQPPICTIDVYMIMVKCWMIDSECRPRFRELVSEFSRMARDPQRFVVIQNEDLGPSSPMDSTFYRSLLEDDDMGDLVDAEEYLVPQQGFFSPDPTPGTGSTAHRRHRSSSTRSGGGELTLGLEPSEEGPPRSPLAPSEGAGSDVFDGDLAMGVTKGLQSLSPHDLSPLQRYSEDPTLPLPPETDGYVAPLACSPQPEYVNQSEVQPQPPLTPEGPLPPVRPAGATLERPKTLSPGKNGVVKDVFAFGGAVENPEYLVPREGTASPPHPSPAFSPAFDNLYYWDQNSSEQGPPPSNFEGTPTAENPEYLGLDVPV

With `CC(Cc1ccc(O)c(O)c1)C(C)Cc1ccc(O)c(O)c1` (stereo not shown) [NDGA, nordihydroguaiaretic acid] the “HER2/neu receptor autophosphorylation in tumors” value (HER2/neu [1]) was “reduced”, the “IGF-1 stimulated phosphorylation of Akt and BAD” value (Akt/BAD pathway) was “reduced in a dose-dependent manner” and the IC50 (MCF-7/neo cells) was 12.5 µM. For the same compound, the IC50 (HER2/neu [2]) was 15 ± 4 µM, the “inhibition of tumor growth” value ([3]; 50 mg/kg daily for 10 d, nude mice, Kelly xenografts) was 50% and the tolerability in mice ([3]; mouse, in vivo) was “very well tolerated”. The “IGF-I stimulated IGF-IR tyrosine phosphorylation” value (IGF-IR) was “inhibited”.

— patent US8143226B2, “Tyrosine kinase receptor antagonists and methods of treatment for breast cancer” (The Regents of the University of California, priority 2005, dated 2012)
